Assay results as given in article PMC4332668, “Characterization of a Novel PQQ-Dependent Quinohemoprotein Pyranose Dehydrogenase from Coprinopsis cinerea Classified into Auxiliary Activities Family 12 in Carbohydrate-Active Enzymes” (PLoS ONE, 2015).

Biological target: T1, DHPDH (Coprinopsis cinerea, UniProt A8P0V4)
T1 construct: gene PDH; isolated PQQ (AA12) dehydrogenase domain, residues 240-649, recombinant from Pichia pastoris, purified as apo-form
T1 sequence (A8P0V4 240-649): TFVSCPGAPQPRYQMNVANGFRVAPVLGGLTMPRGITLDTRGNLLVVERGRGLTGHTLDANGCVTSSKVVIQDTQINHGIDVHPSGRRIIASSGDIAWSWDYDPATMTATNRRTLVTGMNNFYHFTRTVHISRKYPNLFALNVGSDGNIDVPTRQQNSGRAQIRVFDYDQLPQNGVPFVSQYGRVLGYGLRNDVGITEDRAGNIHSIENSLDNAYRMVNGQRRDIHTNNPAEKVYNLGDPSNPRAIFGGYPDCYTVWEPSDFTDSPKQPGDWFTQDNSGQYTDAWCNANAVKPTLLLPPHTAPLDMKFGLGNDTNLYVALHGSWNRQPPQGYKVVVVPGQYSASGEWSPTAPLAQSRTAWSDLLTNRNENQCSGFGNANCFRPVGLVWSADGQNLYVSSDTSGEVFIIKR
Test: UV-vis spectral reduction of PQQ; PMS/DCPIP assay
Assay type: biochemical
Conditions: holo-form; 1 mM L-fucose; 50 mM HEPES pH 7.0; 1 mM CaCl2; room temperature (spectra)

C[C@@H]1OC(O)[C@@H](O)[C@H](O)[C@@H]1O (stereo partly drawn) [L-fucose]
UV-vis spectral reduction of PQQ; PMS/DCPIP assay: The addition of L-fucose resulted in the reduction of PQQ
